Source: ChEMBL document CHEMBL2202954, “The effect of PLC-γ2 inhibitors on the growth of human tumour cells” (2012)

Tests used:
Format in all cases: functional
BT-549 = assay: Cytotoxicity against human BT549 cells assessed as cellular growth at 10 uM by SRB assay
DU-145 = assay: Cytotoxicity against human DU145 cells assessed as cellular growth at 10 uM by SRB assay
SN12C = assay: Cytotoxicity against human SN12C cells assessed as cellular growth at 10 uM by SRB assay
A498 = assay: Cytotoxicity against human A498 cells assessed as cellular growth at 10 uM by SRB assay
OVCAR-4 = assay: Cytotoxicity against human OVCAR4 cells assessed as cellular growth at 10 uM by SRB assay
OVCAR-5 = assay: Cytotoxicity against human OVCAR5 cells assessed as cellular growth at 10 uM by SRB assay
IGROV-1 = assay: Cytotoxicity against human IGROV1 cells assessed as cellular growth at 10 uM by SRB assay
MDA-MB-435 = assay: Cytotoxicity against human MDA-MB-435 cells assessed as cellular growth at 10 uM by SRB assay
M14 = assay: Cytotoxicity against human M14 cells assessed as cellular growth at 10 uM by SRB assay
Malme-3M = assay: Cytotoxicity against human MALME-3M cells assessed as cellular growth at 10 uM by SRB assay
SF-295 = assay: Cytotoxicity against human SF295 cells assessed as cellular growth at 10 uM by SRB assay
SW-620 = assay: Cytotoxicity against human SW620 cells assessed as cellular growth at 10 uM by SRB assay
COLO 205 = assay: Cytotoxicity against human COLO205 cells assessed as cellular growth at 10 uM by SRB assay
NCI-H460 = assay: Cytotoxicity against human NCI-H460 cells assessed as cellular growth at 10 uM by SRB assay
A549 = assay: Cytotoxicity against human A549 cells assessed as cellular growth at 10 uM by SRB assay
SR = assay: Cytotoxicity against human SR cells assessed as cellular growth at 10 uM by SRB assay
K562 = assay: Cytotoxicity against human K562 cells assessed as cellular growth at 10 uM by SRB assay
HL-60(TB) = assay: Cytotoxicity against human HL-60(TB) cells assessed as cellular growth at 10 uM by SRB assay
CCRF-CEM = assay: Cytotoxicity against human CCRF-CEM cells assessed as cellular growth at 10 uM by SRB assay
HOP-92 = assay: Cytotoxicity against human HOP92 cells assessed as cellular growth at 10 uM by SRB assay

| SMILES | Activity (BT-549) | Activity (DU-145) | Activity (SN12C) | Activity (A498) | Activity (OVCAR-4) | Activity (OVCAR-5) | Activity (IGROV-1) | Activity (MDA-MB-435) | Activity (M14) | Activity (Malme-3M) | Activity (SF-295) | Activity (SW-620) | Activity (COLO 205) | Activity (NCI-H460) | Activity (A549) | Activity (SR) | Activity (K562) | Activity (HL-60(TB)) | Activity (CCRF-CEM) | Activity (HOP-92) |
| --- | --- | --- | --- | --- | --- | --- | --- | --- | --- | --- | --- | --- | --- | --- | --- | --- | --- | --- | --- | --- |
| COc1ccc2[nH]c(C(=O)NCc3ccccc3)cc2c1 | 104.33% | 111.13% | 97.3% | 92.89% | 93.84% | 116.46% | 99.05% | 104.78% | 104.15% | 88.8% | 131.65% | 107.28% | 123.53% | 110.92% | 100.34% | 91.93% | 92.68% | 95.91% | 85.19% | – |
| Clc1ccccc1Nc1nnc(-c2ccncc2)s1 | 90.37% | – | 86% | 92.09% | 94.51% | 106.94% | 100.52% | 93.62% | 103.83% | 108.85% | 88.68% | 91.55% | 114.33% | 99.69% | 94.98% | – | 101.4% | 79.12% | 95.96% | 93.87% |
| CC1(C)CCc2cc(-c3ccn(S(=O)(=O)c4ccccc4Cl)n3)ccc2O1 | 99.65% | 93.97% | 75.88% | 71.86% | – | 92.37% | 113.61% | 98.73% | 78.84% | 98.68% | – | 79.15% | 88.88% | 79.3% | 80.53% | 72.9% | 43% | 81.19% | 59.83% | 49.12% |
| O=c1/c(=C/c2ccc(Cl)cc2Cl)sc2nc(-c3ccccc3)nn12 | 122.09% | 102.1% | 94.22% | 112.37% | – | – | 130.42% | 106.5% | 103.59% | 136.07% | 118.28% | 107.15% | 132.3% | 106.83% | 107.72% | 94.63% | 98.67% | 91.7% | 95.93% | 104.34% |
| COc1cc(/C=c2/sc3nc4ccccc4n3c2=O)cc(I)c1O | 102.32% | 102.39% | 101.23% | 69.55% | 96.8% | 102.12% | 110.46% | 97.54% | 107.28% | 109% | 88.17% | 93.08% | 103.31% | 95.07% | 88.66% | – | 51.46% | 81.81% | 83.8% | 93.81% |
| O=C1N=C(c2ccccc2)S/C1=C\c1ccc2c(c1)OCO2 | 108.62% | 102.97% | 94.15% | 80.95% | 100.96% | 92.58% | 101.91% | 103.92% | 111.64% | 94.49% | 97.51% | 89.42% | 101.56% | 96.54% | 95.78% | – | 73.5% | 111.12% | 90.34% | 71.22% |
| N#Cc1ccc(-n2nnc3ccccc32)cc1C#N | 106.48% | 93.52% | 101.03% | 72.76% | 110.46% | 110.44% | 103.62% | 85.25% | 106.26% | 96.58% | 91.5% | 94.36% | 104.26% | 106.55% | 87.19% | – | 92.97% | 107.7% | 93.15% | 103.19% |
| Cc1ccc(CNC(=O)c2[nH]c3ccccc3c2Cl)cc1 | 115.69% | 97.89% | 99.14% | 69% | 101.65% | 108.38% | 99.38% | – | 115.09% | 116.06% | 94.21% | 89.73% | 99.99% | 88.87% | 96.66% | – | 100.85% | 113.42% | 99.93% | 81.7% |
| CC1(C)CCc2cc(-c3ccn(S(=O)(=O)c4ccc(Cl)cc4)n3)ccc2O1 | 88.83% | 88.3% | 72.79% | 70.82% | – | 100.71% | – | 85.81% | 80.11% | – | 78.68% | 87.74% | 116.9% | 73.79% | 67.37% | 45.51% | 52.43% | 71.91% | 64.16% | 8% |
| CC1(C)CCc2cc(-c3ccn(S(=O)(=O)c4cccc(C(F)(F)F)c4)n3)ccc2O1 | 119.64% | 98.46% | 91.59% | 94.88% | – | 108.57% | 109.7% | 97.38% | 97.31% | 102.22% | 108.32% | 88.93% | 123.8% | 90% | 80.37% | 66.68% | 63.16% | 72.67% | 74.11% | 38.91% |
| c1ccc(-c2nc(-c3cccs3)no2)cc1 | 105.93% | 103.67% | 91.08% | 96.9% | – | – | 83.5% | 113.41% | 111.09% | 131.39% | 128.58% | 101.1% | 114.24% | 102.91% | 106.51% | 97.61% | 100.51% | 103.76% | 97.84% | 75.75% |
| O=C(Nc1nc2ccc(Cl)cc2s1)c1ccc(Cl)cc1 | 106.78% | 114.57% | 122.51% | 94.69% | 100.6% | 115.32% | 119.2% | 90.92% | 106.22% | 110.45% | 87.02% | 103.76% | 105.29% | 98.55% | 94.26% | 94.31% | 96.27% | 100.76% | 96.23% | – |
| O=S(=O)(Oc1ccc(-c2cnc3ccccc3n2)cc1)c1ccc2ccccc2c1 | 122.04% | 104.01% | 92.04% | 85.21% | – | 109.35% | – | 95.36% | 100.37% | – | 102.68% | 100.52% | 121.42% | 96.28% | 102.43% | 93.61% | 90.95% | 87.7% | 90.35% | 101.74% |
| O=C(Nc1ccc2oc(=O)ccc2c1)c1ccc(-c2ccc(Cl)c(Cl)c2)o1 | 77.96% | 92.43% | 86.83% | 101.16% | 91.52% | 99.5% | 106.69% | 88.86% | 100.99% | 100.19% | 102.01% | 100.55% | 121.29% | 100.41% | 50.07% | 89.98% | 65.27% | 85.04% | 57.99% | – |
| CC1(C)CC(=O)c2cc3c(N)c(C(=O)Nc4ccccc4Cl)sc3nc2C1 | 128% | 109.85% | 104.5% | 71.33% | – | – | 126.77% | 105.18% | 118.29% | 121.48% | 96.7% | 108.49% | 125.06% | 113.94% | 102.64% | – | 96.43% | – | 97.05% | 103.08% |
| Cc1ccc(NC(=O)c2sc3nc(-c4cccs4)ccc3c2N)cc1C | 133.54% | 103.5% | 100.59% | 88.5% | – | 115.16% | 117.67% | 101.83% | 114.64% | 118.51% | 110.27% | 101.23% | 112.33% | 98.65% | 96.75% | 82.09% | 90.31% | 82.68% | 97.34% | 106.34% |
| COc1ccc(S(=O)(=O)n2ccc(-c3ccc4c(c3)CCC(C)(C)O4)n2)cc1 | 65.47% | – | 97.48% | 89.14% | 52.32% | 108.8% | 90.82% | 74.3% | 86.46% | 109.7% | 47.66% | 90.28% | 107.28% | 75.37% | 73.96% | – | 55.64% | 60.02% | 58.86% | 61.38% |
| Nc1c(C(=O)Nc2ccccc2F)sc2nc3c(cc12)C(=O)CCC3 | 59.83% | 8.4% | 49.76% | -1.01% | – | 71.12% | – | -25.93% | 19.18% | – | 3.17% | 30% | 5.76% | 11.41% | 22.02% | 36.7% | 26.33% | 3387% | 26.78% | 53.65% |
